ChEMBL document CHEMBL1909046, “DrugMatrix in vitro pharmacology data”

What was measured:
[1] = target: 5-hydroxytryptamine receptor 4 (Cavia porcellus, UniProt O70528); format: cell membranes, Dunkin-Hartley, Striatum, Membrane; also: in other assays of this panel Not Active means under 50% inhibition at 10 µM
[2] = DRUGMATRIX: Sigma2 radioligand binding (ligand: [3H] Ifenprodil); format: cell membranes, Rattus norvegicus, Wistar, Brain, Membrane; details: Not Active = under 50% inhibition at 10 µM
[3] = DRUGMATRIX: GABAA, Muscimol, Central radioligand binding (ligand: [3H] Muscimol); format: cell membranes, Rattus norvegicus, Wistar, Brain, Membrane; details: Not Active = under 50% inhibition at 10 µM
[4] = DRUGMATRIX: Glutamate, NMDA, Agonism radioligand binding (ligand: [3H] CGP-39653); format: cell membranes, Rattus norvegicus, Wistar, Cerebral cortex, Membrane; details: Not Active = under 50% inhibition at 10 µM
[5] = target: Glycine receptor (Rattus norvegicus, UniProt P22771+P24524+P07727+P20781); format: cell membranes, Wistar, Spinal cord, Membrane; also: in other assays of this panel Not Active means under 50% inhibition at 10 µM
[6] = target: Melanocortin receptor 3 (Homo sapiens, UniProt P41968); format: cell membranes, Membrane; details: hek293; also: in other assays of this panel Not Active means under 50% inhibition at 10 µM
[7] = DRUGMATRIX: Platelet-Derived Growth Factor (PDGF) radioligand binding (ligand: [125I] PDGF); format: cell-based; details: nih3t3; Not Active = under 50% inhibition at 10 µM
[8] = target: Estrogen receptor beta (Homo sapiens, UniProt Q92731); details: sf9; also: in other assays of this panel Not Active means under 50% inhibition at 10 µM
Estrogen receptor beta, sequence (Q92731 whole entry): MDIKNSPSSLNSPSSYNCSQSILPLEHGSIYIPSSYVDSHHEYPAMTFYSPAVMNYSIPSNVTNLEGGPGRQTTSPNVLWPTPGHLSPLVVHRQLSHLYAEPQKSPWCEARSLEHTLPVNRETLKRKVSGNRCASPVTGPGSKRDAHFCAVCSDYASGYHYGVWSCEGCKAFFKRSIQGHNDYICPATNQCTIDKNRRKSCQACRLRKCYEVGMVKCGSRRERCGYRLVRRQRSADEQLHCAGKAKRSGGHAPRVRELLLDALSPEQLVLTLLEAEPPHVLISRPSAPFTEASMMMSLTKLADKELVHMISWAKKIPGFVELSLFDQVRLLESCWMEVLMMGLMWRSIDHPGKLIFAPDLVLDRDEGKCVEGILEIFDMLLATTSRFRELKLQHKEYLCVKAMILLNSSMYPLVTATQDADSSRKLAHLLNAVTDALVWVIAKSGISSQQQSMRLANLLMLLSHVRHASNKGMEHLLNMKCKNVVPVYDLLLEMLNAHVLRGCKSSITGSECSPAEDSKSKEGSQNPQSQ

5-hydroxytryptamine receptor 4, sequence (O70528 whole entry): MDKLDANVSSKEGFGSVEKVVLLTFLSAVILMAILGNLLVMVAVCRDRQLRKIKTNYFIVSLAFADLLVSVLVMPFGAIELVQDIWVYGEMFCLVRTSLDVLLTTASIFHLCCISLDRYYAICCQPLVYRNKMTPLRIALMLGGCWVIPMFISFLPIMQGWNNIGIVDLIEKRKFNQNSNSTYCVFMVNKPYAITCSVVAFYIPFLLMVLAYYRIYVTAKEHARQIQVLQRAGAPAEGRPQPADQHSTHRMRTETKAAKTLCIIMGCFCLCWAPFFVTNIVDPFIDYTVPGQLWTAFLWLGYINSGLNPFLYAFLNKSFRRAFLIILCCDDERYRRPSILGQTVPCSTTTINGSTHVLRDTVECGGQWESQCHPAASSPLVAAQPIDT
Melanocortin receptor 3, sequence (P41968 whole entry): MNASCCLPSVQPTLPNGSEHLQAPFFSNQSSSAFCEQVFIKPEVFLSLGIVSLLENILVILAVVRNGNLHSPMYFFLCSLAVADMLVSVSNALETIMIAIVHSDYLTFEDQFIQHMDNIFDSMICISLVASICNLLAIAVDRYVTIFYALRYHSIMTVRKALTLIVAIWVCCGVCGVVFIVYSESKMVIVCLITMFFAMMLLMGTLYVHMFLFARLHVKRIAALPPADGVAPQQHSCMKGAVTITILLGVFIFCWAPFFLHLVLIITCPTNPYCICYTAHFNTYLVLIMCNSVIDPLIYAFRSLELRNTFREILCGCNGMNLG

Compound	IC50 [1]	IC50 [2]	Ki [2]	IC50 [3]	Ki [3]	IC50 [4]	Ki [4]	IC50 [5]	IC50 [6]	IC50 [7]	Ki [7]	IC50 [8]	IC50 ([1]; read-out: IC50)	Ki ([1]; read-out: Ki)	IC50 ([2]; read-out: IC50)	Ki ([2]; read-out: Ki)	Ki [1]	Ki [5]	Ki [6]	Ki [8]
N[C@@H](Cc1ccc(F)cc1)C(=O)O	Not Active	Not Active	Not Active	Not Active	Not Active	Not Active	Not Active	Not Active	Not Active	Not Active	Not Active	Not Active	–	–	–	–	–	–	–	–
O=C(/C=C/c1ccc(O)c(O)c1)OCCc1ccccc1 [CAFFEIC ACID PHENETHYL ESTER]	Not Active	Not Active	Not Active	Not Active	Not Active	Not Active	Not Active	Not Active	Not Active	Not Active	Not Active	Not Active	–	–	–	–	–	–	–	–
CCOC(=O)C1=C(C)NC(C)=C(C(=O)OC)C1c1cccc(Cl)c1Cl (stereo not given) [FELODIPINE]	Not Active	Not Active	Not Active	Not Active	Not Active	Not Active	Not Active	Not Active	Not Active	Not Active	Not Active	Not Active	–	–	–	–	–	–	–	–
CCC[C@@H]1C[C@@H](C(=O)N[C@@H]([C@H]2O[C@H](SC)[C@H](O)[C@@H](O)[C@H]2O)[C@H](C)Cl)N(C)C1 [CLINDAMYCIN]	Not Active	Not Active	Not Active	Not Active	Not Active	Not Active	Not Active	Not Active	Not Active	Not Active	Not Active	Not Active	–	–	–	–	–	–	–	–
C[C@H]([C@](O)(Cn1cncn1)c1ccc(F)cc1F)S(C)(=O)=O [GENACONAZOLE]	Not Active	Not Active	Not Active	Not Active	Not Active	Not Active	Not Active	Not Active	Not Active	Not Active	Not Active	Not Active	–	–	–	–	–	–	–	–
Nc1nc(N)nc(NC2CC2)n1 [CYROMAZINE]	Not Active	Not Active	Not Active	Not Active	Not Active	Not Active	Not Active	Not Active	Not Active	Not Active	Not Active	Not Active	–	–	–	–	–	–	–	–
CC[C@H](C)C(=O)O[C@H]1C[C@H](O)C=C2C=C[C@H](C)[C@H](CC[C@@H](O)C[C@@H](O)CC(=O)O)[C@H]21 [PRAVASTATIN]	Not Active	Not Active	Not Active	Not Active	Not Active	Not Active	Not Active	Not Active	Not Active	Not Active	Not Active	Not Active	–	–	–	–	–	–	–	–
OCCN1CCN(CCCN2c3ccccc3Sc3ccc(Cl)cc32)CC1 [PERPHENAZINE]	Not Active	Not Active	Not Active	Not Active	Not Active	Not Active	Not Active	Not Active	Not Active	Not Active	Not Active	Not Active	–	–	–	–	–	–	–	–
CC(C)(C)c1ccc(S(=O)(=O)/C=C/C#N)cc1 [BAY-11-7085]	Not Active	Not Active	Not Active	Not Active	Not Active	Not Active	Not Active	Not Active	Not Active	Not Active	Not Active	Not Active	–	–	–	–	–	–	–	–
CCC(=O)O[C@H]1[C@H](O[C@@H]2[C@@H](C)[C@H](O[C@H]3C[C@@](C)(OC)[C@@H](O)[C@H](C)O3)[C@@H](C)C(=O)O[C@H](CC)[C@@](C)(O)[C@H](O)[C@@H](C)C(=O)[C@H](C)C[C@@]2(C)O)O[C@H](C)C[C@@H]1N(C)C [ERYTHROMYCIN PROPIONATE]	Not Active	Not Active	Not Active	Not Active	Not Active	Not Active	Not Active	Not Active	Not Active	Not Active	Not Active	Not Active	–	–	–	–	–	–	–	–
C#C[C@]1(O)CC[C@H]2[C@@H]3CCc4cc(O)ccc4[C@H]3CC[C@@]21C [ETHINYL ESTRADIOL]	–	Not Active	Not Active	Not Active	Not Active	Not Active	Not Active	Not Active	Not Active	Not Active	Not Active	Not Active	7950 nM	1330 nM	–	–	–	–	–	–
CC(C)(Sc1cc(C(C)(C)C)c(O)c(C(C)(C)C)c1)Sc1cc(C(C)(C)C)c(O)c(C(C)(C)C)c1 [PROBUCOL]	Not Active	Not Active	Not Active	Not Active	Not Active	Not Active	Not Active	Not Active	Not Active	Not Active	Not Active	Not Active	–	–	–	–	–	–	–	–
CN1C[C@H](C(=O)N[C@]2(C)O[C@@]3(O)[C@@H]4CCCN4C(=O)[C@H](Cc4ccccc4)N3C2=O)C[C@@H]2c3cccc4[nH]cc(c34)C[C@H]21 [DIHYDROERGOTAMINE]	–	Not Active	Not Active	Not Active	Not Active	Not Active	Not Active	Not Active	Not Active	Not Active	Not Active	Not Active	940 nM	157 nM	–	–	–	–	–	–
CC(CCc1ccc(O)cc1)NCCc1ccc(O)c(O)c1 (stereo not given) [DOBUTAMINE]	Not Active	–	–	Not Active	Not Active	Not Active	Not Active	Not Active	Not Active	Not Active	Not Active	Not Active	–	–	2600 nM	1600 nM	–	–	–	–
POLYVINYL ALCOHOL	Not Active	Not Active	Not Active	Not Active	Not Active	Not Active	Not Active	Not Active	Not Active	Not Active	Not Active	Not Active	–	–	–	–	Not Active	Not Active	Not Active	Not Active
CC[C@H]1OC(=O)[C@H](C)[C@@H](O[C@H]2C[C@@](C)(OC)[C@@H](O)[C@H](C)O2)[C@H](C)[C@@H](O[C@@H]2O[C@H](C)C[C@H](N(C)C)[C@H]2O)[C@](C)(O)C[C@@H](C)CN(C)[C@H](C)[C@@H](O)[C@]1(C)O [AZITHROMYCIN]	Not Active	Not Active	Not Active	Not Active	Not Active	Not Active	Not Active	Not Active	Not Active	Not Active	Not Active	Not Active	–	–	–	–	–	–	–	–
CC(=O)OCC(CCn1cnc2cnc(N)nc21)COC(C)=O [FAMCICLOVIR]	Not Active	Not Active	Not Active	Not Active	Not Active	Not Active	Not Active	Not Active	Not Active	Not Active	Not Active	Not Active	–	–	–	–	–	–	–	–
